Laboratory results reported in patent US8710246B2, “Substituted thiophene pentamers” (Biochromix Newco AB, priority 2008, dated 2014).
Entries after “also recorded” stand apart in the source; their conditions may differ.

Experiments:
[1] = test system: Aβ deposits; test: Long term in vivo effects on amyloid plaques in transgenic mice, cranial window, multiphoton spectroscopy; conditions: tail vein injection, 10 mg/kg
Source text: This long lasting binding to the plaques is advantageous for a long term therapeutic effect of the inventive compounds.

[2] = target: T1, Aβ peptide 1-42 (Homo sapiens, UniProt P05067); test: In vitro fibrillation of Aβ peptide 1-42 followed by TEM; format: biochemical; conditions: for fibrillation morphology by TEM: 20 μM Aβ 1-42, 37° C.
T1 construct: Aβ peptide 1-42 was dissolved in hexafluoroisopropanol
Experimental: Aβ peptide 1-42 was dissolved in hexafluoroisopropanol to a concentration of 1 mg/mL and further diluted to 20 μM in Tris-HCl 5 mM, 75 mM NaCl. The inventive compounds F and G were added in concentrations from 10 to 100 μM and the samples, including references without the inventive compounds, were incubated at 37° C. to initiate fibrillation. After Oh, 20 h and 66 h aliquots were withdrawn, deposited on formvar-carbon coated TEM grids and negatively stained using uranylacetate. A Phillips CM200 run at 200 kV was used to study the progress of fibrillation in the different samples. […] (at Oh). […] These aggregates were covering most of the TEM grid and no smaller fibril or oligomer like structures could be seen. After 66 h of incubation no major change in morphology compared to the 20 h samples could be seen, sheets with separate visible fibrils were found at high density on the grid, of a typical morphology illustrated in FIG. 3.

[3] = test system: primary chicken neurons; test: Aβ1-42 induced lesions in primary chicken neurons, MTT viability assay; format: cell-based
Experimental: T:I 1: p-HTAA, Mw=529 g/mol, diluted in vehicle from stock solution in PBS+1.33% DMSO (10 mg/ml).
T:I 2: POWT-13, Mw=2782 g/mol, diluted in vehicle from stock solution in deionized water (40 mg/ml).
Cell source: Telencephalon neurons from 8-day-old chicken embryos (Lohman Brown hybrid)
Nutrition medium: DMEM with 4.5 g glucose/1, 5% Nu Serum, 0.01% gentamycin, 2 mM L-glutamine
Group size: n=6 for each T.I. and R.I. concentration per experiment
Lesion: 10 μM Aβ1-42 (pre-aggregated for 48 h) at DIV8 for 48 h
Evaluation of the effects: MTT on DIV 10
One-day-old fertilized eggs will be stored under appropriate conditions until start of breeding. On embryonic day 0 eggs will be transferred to the breeding incubator and under turning kept at 37.8° C. and 55% humidity until embryonic day eight. […]
Viability of cultures will be determined with the MTT assay using a plate-reader (570 nm) as described e.g. in SOP MET004. […] Since this reaction is catalysed in living cells only this assay can be used for the quantification of cell viability. […] To estimate optical density, a plate-reader (Anthos HT II or pquant) is used at wavelength 570 nm. […]
After 48 hours of incubation of T.I. and Aβ1-42 on cells (DIV10), viability of neurons will be analysed by the MTT assay.

T1 sequence (P05067 672-713 limits assumed): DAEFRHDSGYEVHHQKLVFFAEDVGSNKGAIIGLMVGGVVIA

O=C(O)Cc1cc(-c2cccs2)sc1-c1ccc(-c2sc(-c3cccs3)cc2CC(=O)O)s1 [Compound G]
binding to Aβ deposits in living mouse brain one week after injection ([1]; one week after injection): binding of the inventive compounds to AP deposits could still be observed; also recorded: bound to Aβ deposits in living mouse brain one week after injection
crossing of the blood brain barrier after intravenous injection ([1]; transgenic mice with AD-like pathology): readily cross the blood brain barrier
fibrillation morphology by TEM ([2]; 10 μM compound, 20 h): no dense aggregates resembling those in the reference sample; also recorded: low density of oligomer like structures
fibrillation morphology by TEM ([2]; 100 μM compound, 20 h): no dense aggregates resembling those in the reference sample; also recorded: low density of short branched fibrils with a very low contrast; also recorded: Short branched fibrils
fibrillation morphology by TEM ([2]; 100 μM compound, 66 h): very few separate short proto-fibrils; also recorded: Short proto-fibrils
effect on the fibrillation of Aβ peptide 1-42 ([2]; overall conclusion, 20 h and 66 h): major effect
viability of neurons (MTT) ([3]; test item added to Aβ1-42 during aggregation, then on cells 48 h, FIG. 12): better viability compared to 10 μM Aβ1-42 alone
viability of neurons (MTT) ([3]; test item and pre-aggregated 10 μM Aβ1-42 applied on neurons simultaneously, 48 h, FIG. 11): better viability compared to 10 μM Aβ1-42 alone
